{"source": "paper PMC5029940", "about": "“High Throughput Random Mutagenesis and Single Molecule Real Time Sequencing of the Muscle Nicotinic Acetylcholine Receptor” (PLoS ONE, 2016)", "type_in_all_cases": "cell-based", "key": {"[1]": {"target": "T1, human muscle nicotinic acetylcholine receptor (nAChR), adult form, (α1)2β1δε (Homo sapiens, UniProt P02708+Q04844+Q07001)", "T1 construct": "gene CHRNA1; full-length untagged subunits; CMV-alpha1 plasmid plus EF1alpha beta1-delta-epsilon triple plasmid, transient in HEK293; heteropentamer; with Acetylcholine receptor subunit beta", "assay": "Fluo-4 Ca2+ flux, FLIPR", "details": "read-out: α1-Wt / EC50", "from_the_text": "(§1) Fluo-4 Ca2+ flux, FLIPR on human muscle nicotinic acetylcholine receptor (nAChR), adult form, (α1)2β1δε"}, "[2]": {"target": "T2, human muscle nicotinic acetylcholine receptor (nAChR), adult form, (α1)2β1δε (Homo sapiens, UniProt P02708+Q04844+Q07001, P02708:V275M)", "T2 construct": "gene CHRNA1; full-length untagged subunits; CMV-alpha1 plasmid plus EF1alpha beta1-delta-epsilon triple plasmid, transient in HEK293; heteropentamer; with Acetylcholine receptor subunit beta", "assay": "Fluo-4 Ca2+ flux, FLIPR", "from_the_text": "as §1"}, "[3]": {"target": "T3, human muscle nicotinic acetylcholine receptor (nAChR), adult form, (α1)2β1δε (Homo sapiens, UniProt P02708+Q04844+Q07001, P02708:Y233H)", "T3 construct": "gene CHRNA1; full-length untagged subunits; CMV-alpha1 plasmid plus EF1alpha beta1-delta-epsilon triple plasmid, transient in HEK293; heteropentamer; with Acetylcholine receptor subunit beta", "assay": "Fluo-4 Ca2+ flux, FLIPR", "from_the_text": "as §1"}, "[4]": {"target": "T4, human muscle nicotinic acetylcholine receptor (nAChR), adult form, (α1)2β1δε (Homo sapiens, UniProt P02708+Q04844+Q07001, P02708:Y233N)", "T4 construct": "gene CHRNA1; full-length untagged subunits; CMV-alpha1 plasmid plus EF1alpha beta1-delta-epsilon triple plasmid, transient in HEK293; heteropentamer; with Acetylcholine receptor subunit beta", "assay": "Fluo-4 Ca2+ flux, FLIPR", "from_the_text": "as §1"}, "[5]": {"target": "T1, human muscle nicotinic acetylcholine receptor (nAChR), adult form, (α1)2β1δε", "assay": "Fluo-4 Ca2+ flux, FLIPR, inhibition of epibatidine response"}}}
{"molecule": "O=c1cccc2n1C[C@@H]1CNC[C@H]2C1", "note": "[Cytisine]", "values": [{"measurement": "EC50", "setting": "[1]", "value": "2350 ± 367", "unit": "nM"}, {"measurement": "EC50", "setting": "[2]", "value": "592 ± 153", "unit": "nM"}, {"measurement": "EC50", "setting": "[3]", "value": "650 ± 93", "unit": "nM"}, {"measurement": "EC50", "setting": "[4]", "value": "1180 ± 76", "unit": "nM"}]}
{"molecule": "C[N+]1(C)CCN(c2ccccc2)CC1", "note": "[DMPP]", "values": [{"measurement": "EC50", "setting": "[1]", "value": "1630 ± 203", "unit": "nM"}, {"measurement": "EC50", "setting": "[2]", "value": "67 ± 15", "unit": "nM"}, {"measurement": "EC50", "setting": "[3]", "value": "161 ± 10", "unit": "nM"}, {"measurement": "EC50", "setting": "[4]", "value": "705 ± 22", "unit": "nM"}]}
{"molecule": "CN1CCC[C@H]1c1cccnc1", "note": "[Nicotine]", "values": [{"measurement": "EC50", "setting": "[1]", "value": "3650 ± 1040", "unit": "nM"}, {"measurement": "EC50", "setting": "[2]", "value": "557 ± 226", "unit": "nM"}, {"measurement": "EC50", "setting": "[3]", "value": "1390 ± 117", "unit": "nM"}, {"measurement": "EC50", "setting": "[4]", "value": "1380 ± 96", "unit": "nM"}]}
{"molecule": "COc1cc2c3cc1Oc1cc(ccc1O)C[C@@H]1c4c(cc(OC)c(O)c4Oc4ccc(cc4)C[C@@H]3N(C)CC2)CC[N+]1(C)C", "note": "[tubocurarine]", "values": [{"measurement": "IC50", "setting": "[5]", "value": "3.2 ± 2.4", "unit": "µM"}]}
